Reference: US7336989B2, “System and method for quantitative or qualitative measurement of exogenous substances in tissue and other materials using laser-induced fluorescence spectroscopy” (priority 2002, dated 2008)
Several values for one entry are separate records, joined by “and”; a condition that tells them apart may be missing. Identical values can stand only once.

Assay: Penetration depth of topically applied antibiotics into corneal tissue, by excimer laser ablation and laser-induced fluorescence spectroscopy with PLS model
Type: in vitro ADME
Conditions: for Antibiotic Penetration Depth (Mean): rinsed, mean of cases (SD in text)
Procedure: The second set of experiments was performed on fresh rabbit corneas. All experiments were performed in compliance with the Association for Research in Vision and Ophthalmology (ARVO) Statement on the Use of Animals in Research. Approval was obtained from the University of California, Irvine, Institutional Care and Use Committee (IACUC) and the IACUC guidelines regarding animal experimentation were followed. New Zealand White rabbit heads were obtained from an abattoir and kept at 4° C. until eyes were enucleated within 7-hours of death to maximize preservation of the corneal epithelium. The globes were stored in a moist chamber at 4° C. for approximately 4 hours until time of use.
The main component, mounted on or above an optical table 21, is the Nidek EC-5000 laser system 22 (Model EC-5000, Nidek Technologies, Inc., Japan) operating at 193 nm. The average laser energy is about 16.4 mJ/pulse measured over a period of 10-s while pulsing at 4 Hz. The eye-fixation LED and the aiming He—Ne laser within the laser system 22 are disabled to avoid their interference with the measured corneal autofluorescence.
During the experiments, the laser 22 is operated to emit a collimated laser beam 23 in the direction of a cornea 24. The laser 22 is operated in its manual mode to pulse the beam 23 at 4 Hz and generate a rectangular spot size of about 2×4.5-mm. The BNC cable connecting the control circuitry of the EC-5000 to the OEM […] excimer laser (Lambda Physik, Fort Lauderdale, Fla.) is tapped using a BNC T-adapter. […]
Each pulse of radiation emitted from the laser 22 ablates a thin layer of the cornea 24. The laser-induced fluorescence (LIF) 32 produced by the ablated cornea 24 is reflected by a 2″ off-axis parabolic mirror 34 (Al, SiO-protected Model A8037-331, Janos Technology Inc., Townshend, Vt.) mounted on a mirror holder 36 that is, in turn, mounted on an XYZ translator 38. […] With each trigger pulse, the spectrograph 26 measures and auto-saves the fluorescence spectrum generated by the corresponding laser pulse.
The cornea 24 was placed epithelium-up (with the exception of the cornea in Example 4) on a circular aluminum tray 42. […] The laser 22 was set to ablate the cornea at 4-Hz for a period of about 7-minutes and the fluorescence spectrum generated by each pulse was measured and saved. […]
In each set of experiments, the measured fluorescence spectra are corrected for dark current and background light, and each spectrum is smoothed using a 5-point moving average window. The series of spectra measured from a given cornea are normalized by the peak value of the first spectrum in the series (i.e. the spectrum of the corneal surface). […]

Row | Structure (SMILES) | Antibiotic Penetration Depth (individual cases) (enucleated rabbit globes, topical 4 drops for 10 min, then 3 drops for 5 min, rinsed with lactated Ringer's, single cornea per case) | Antibiotic Penetration Depth (Mean) (enucleated rabbit globes, topical 4 drops for 10 min, then 3 drops for 5 min) | Antibiotic Penetration Depth (Mean) (enucleated rabbit globes, topical 4 drops for 10 min, then 3 drops for 5 min, listed as ciprofloxacin) | Penetration of the corneal epithelium (in words)
1 | O=C(O)c1cn(C2CC2)c2cc(N3CCNCC3)c(F)cc2c1=O [Ciprofloxacin, ciprofloxacin] | 0.6 μm and 1.5 μm and 0.9 μm | 1.0 μm | 1.0±0.5 μm | 
2 | COc1c(N2CCNC(C)C2)c(F)cc2c(=O)c(C(=O)O)cn(C3CC3)c12 (stereo not shown) [Gatifloxacin, gatifloxacin] |  |  |  | penetrate the epithelium significantly more than ciprofloxacin
